This note sets out measurements from US20040059104A1, “Nucleotide mimics and their prodrugs” (priority 2002, published 2004).

Series [1] is described as follows: in vitro. The settings on record: bovine, serum. The procedure:
Typically the total volume used for the experiment was 500 μl. The final concentrations of the reaction components were as follows:
The reacton mixtures were made up and incubated at 37° C. At appropriate times aliquots of 25 μl were removed and added to 65 μl ice-cold methanol. These solutions were our at −20° C. and typically overnight. After incubation samples were inutes at high speed in a microcentrifuge. The supernatant was nd the extract was dried under vacuum in a LabConco Centrivap Concentrator. The dried extracts were resuspended in dH2O and filtered to remove particulate before analysis on reverse phase HPLC.
The reverse phase HPLC columns used for the analysis were either a Phenomenex C18 Aqua column (2×100 mm) or the Phenomenex C18 Aqua column (3×150 mm) used with the appropriate guard column. The HPLC was run at 0.2 ml/min (for the 2×100 mm column) or at 0.5 ml/min (for the 3×150 mm column) with the following buffer system: 5 mM tetrabutylammonium acetate, 50 mM ammonium phosphate, and an acetonitrile gradient running from 5% up to as high as 60%. The amount of remaining parent compound at each time point was used to determine the half-life of the compound. […] Unmodified nucleoside triphosphates were used as positive controls.

The subject of a further series is CEM cells. As to the kind of experiment: Cell uptake procedure (intracellular nucleotide levels by HPLC). The series is classed as cell-based, Human. The settings on record: 24 hour incubation, limit of detection about 5 pmol/10^6 cells. The procedure:
CEM cells were resuspended in RPMI at 1×10^7 cells/mL. The appropriate amount of each compound was added to well and then 0.5 ml of the cells was aliquoted into the appropriate number of wells of a 24-well plate and incubated the cells at 37° C. Cells were harvested after 24 hours of incubation. To harvest cells they were transferred to a microfuge tube and spun for one minute at high speed. The samples were washed in PBS containing 1 mg/ml BSA and re-centrifuged. The PBS was then aspirated and 200 μL of ice-cold 60% methanol was added to extract the nucleotides. The extracts were incubated overnight at −20° C. The next day the samples were spun at high speed in a microfuge for 20 minutes and the supernatant transferred to clean tubes and dried in the speed vac. After drying the samples were resuspended in 50 μl, filtered, and the samples then directly injected onto the HPLC. The nucleotides were analyzed using reverse phase HPLC with ion-pairing agents for separation of the nucleotides. The procedure was adapted from the following paper: Furman, et al., Proc. Natl. Acad. Sci. USA 1986, 83, 8333-8337.
The limit of detection was estimated to be 5 pmol/10^6 cells.

A further series relates to Escherichia coli. As to the kind of experiment: Antimicrobial assay, minimal inhibitory concentration. The series is classed as cell-based. The procedure:
To examine the antimicrobial potential of the nucleotide mimics of the present invention an assay was employed that allowed the screening of a large number of compounds simultaneously. The type of bacteria chosen to screen the compounds are organisms associated with human disease and represent major groups of bacteria based on their structure and metabolism. Bacterial cultures of Escherichia coli and Staphylococcus aureus were incubated overnight at 37° C. in a shaker incubator. A lawn of each overnight bacterial culture was made by plating […] of bacteria on agar plates containing Nutrient Broth. Immediately after plating, sterile blank paper discs were put on top of the lawn and a compound was applied to each blank paper disc. Plates were then incubated overnight and examined for the inhibition of bacterial growth the following day. […] The plates were incubated overnight at 37° C. and then examined spectrophotometrically at 600 nm to determine the minimum concentration of each compound that inhibited replication of bacteria as determined by no increase in absorbance at 600 nm.

Another series concerns HIV-1RF. As to the kind of experiment: Anti-HIV-1 cytoprotection assay in CEM-SS cells. The class given is cell-based. The settings on record: CEM-SS cells infected with HIV-1RF, MOI approximately 0.01, 6 days, MTS; read-out: CEM-SS IC50 (Anti-HIV Screening). The procedure: (§1) ollowing paper: Structure-Activity and Cross-Resistance unodeficiency Virus Type 1-Specific ckheit, Jr. et al., Antimicrobial Agents and s were evaluated in CEM-SS cell cultures V-1RF at an MOI of approximately 0.01. At he soluble tetrazolium-based dye MTS viability and quantify compound toxicity of metabolically active cells to yield a soluble analysis of cell viability and compound
Efficacy Evaluation in CEM-SS Cells Anti-HIV-1 Cytoprotection Assay
Cell Preparation—CEM-SS cells were passaged in T-75 flasks prior to use in the antiviral assay. On the day preceding the assay, the cells were split 1:2 to assure they were in an exponential growth phase at the time of infection. Total cell and viability quantification was performed using a hemacytometer and trypan blue exclusion. Cell viability was greater than 95% for the cells to be utilized in the assay. The cells were resuspended at 5×10^4 cells/ml in tissue culture medium and added to the drug-containing microtiter plates in a volume of 50 μl.
Virus Preparation—The virus used for these tests was the lymphocytropic virus strain HIV-1RF. This virus was obtained from the NIH AIDS Research and Reference Reagent Program and was grown in CEM-SS cells for the production of stock virus pools. For each assay, a pre-titered aliquot of virus was removed from the freezer (−80° C.) and allowed to thaw slowly to room temperature in a biological safety cabinet. The virus was resuspended and diluted into tissue culture medium such that the amount of virus added to each well in a volume of 50 μl was the amount determined to give between 85 to 95% cell killing at 6 days post-infection.
(§2) At assay termination, the assay plates were stained with the soluble tetrazolium-based dye MTS (CellTiter Reagent Promega) to determine cell viability and quantify compound toxicity. MTS is metabolized by the mitochondrial enzymes of metabolically active cells to yield a soluble formazan product, allowing the rapid quantitative analysis of cell viability and compound cytotoxicity. […] At termination of the assay, 20 μL of MTS reagent was added per well. The microtiter plates were then incubated 4-6 hrs at 37° C. for the HIV cytoprotection assay; the incubation intervals were chosen based on empirically determined times for optimal dye reduction. Adhesive plate sealers were used in place of the lids, the sealed plate was inverted several times to mix the soluble formazan product and the plate was read spectrophotometrically at 490 nm with a Molecular Devices Vmax plate reader.

Series [2] is described as follows: in vitro. Conditions: human. The procedure:
The stability of compounds in cell extracts was examined as follows:
Cell lysis buffer was added to cell pellets and the cells frozen and thawed 3× using dry ice. The lysis buffer (LB) was composed of the following: 50 mM Tris-HCl, pH 7.4 (100 μl/ml 10× stock), 20% glycerol (200 μl/ml), and 0.5% Triton X-100 (5 μl/ml). 100 μl of LB was added to each microfuge tube containing 10^7 frozen CEM cells. After the cells were lysed the extracts were centrifuged at high speed in a microcentrifuge for 5 minutes and the clarified cell extract transferred to a new tube. The cell stability reaction mixtures contained concentrations of buffer, magnesium, nucleotide, and cell extract as shown below:
The reaction mixtures were incubated at 37° C. At each time point, including at time zero, 12.5 μl aliquots were added to 40 μl ice-cold methanol. […] The samples were incubated in methanol for at least 60 minutes and typically overnight at −20° C. prior to further processing. The cell extracts were centrifuged at high speed in refrigerated microcentrifuge for 20 minutes and the supernatant transferred to a new tube. The extract was then dried under vacuum in a LabConco Centrivap Concentrator. The samples were then resuspended in 40 or 50 μl dH2O, filtered to remove any particulate, and analyzed by reverse phase HPLC.
The reverse phase HPLC columns used for the analysis were either a Phenomenex C18 Aqua column (2×100 mm) or the Phenomenex C18 Aqua column (3×150 mm) used with the appropriate guard column. The HPLC flow rate was either 0.2 ml/min (for the 2×100 mm column) or 0.5 ml/min (for the 3×150 mm column) with the following buffer system: 5 mM tetrabutylammonium acetate, 50 mM ammonium phosphate, and an acetonitrile gradient running from 5% up to as high as 60%. The amount of remaining parent compound at each time point was used to determine the half-life of the compound. […] Unmodified nucleoside triphosphates were used as positive controls.

Another series has as its system CEM-SS cells. As to the kind of experiment: Compound toxicity in CEM-SS cells (MTS staining). The class given is cell-based. The settings on record: read-out: CEM-SS TC50. The procedure: as §1, §2
In series [3] the target is T1, HIV Reverse Transcriptase (Type B, 66 kDa subunit) (Human immunodeficiency virus type 1 group M subtype B, UniProt P04585).
T1 construct: purified HIV Reverse Transcriptase (Type B, 66 kDa subunit)
As to the kind of experiment: HIV Reverse Transcriptase inhibition assays (RNA-directed DNA polymerization, PicoGreen fluorescence). The series is classed as biochemical. The settings on record: Table 1; template (homopolymer or heteropolymer RNA) not stated; read-out: Ki, Inhibition of HIV Reverse Transcriptase by Nucleotide Mimics. The procedure:
The assays employed to measure inhibition of HIV Reverse Transcriptase (HIV RT) catalyzed/RNA-directed DNA polymerization are described below. The effectiveness of the compounds of the present invention as inhibitors of HIV RT-catalyzed DNA polymerization was measured in the following assays.
This assay was used to measure the ability of the nucleotide mimics of the present invention to inhibit the enzymatic synthesis of complementary strand DNA from a DNA-primed template of homopolymeric RNA. This assay is a modification of a published procedure (Seville, et al., “Fluorometric Assay for DNA Polymerases and Reverse Transcriptase”, BioTechniques 1996, 21, 664-72).
The compounds were tested at various concentrations up to 500 μM final concentration. DNA polymerase activity was measured in a reaction buffer containing primed-RNA template and dTTP diluted to appropriate concentrations in assay buffer. Nucleotide mimics of the present invention were diluted in buffer and pipetted into the wells of a 96-well plate. The reaction was initiated by addition of enzyme and allowed to proceed at 37° C. for 10 minutes. The reaction was quenched by addition of 5 μL 0.2 M EDTA, pH 8.0.
200 μL of diluted PicoGreen dsDNA Quantitation Reagent (Molecular Probes, Inc, Eugene, Oreg.) was added to each well of a 96-well plate and incubated at room temperature for 5 minutes. Plate wells were read on a microplate fluorometer (Molecular Devices Corp., Sunnyvale, Calif.). The wells were excited at 480 nm and the fluorescence emission intensity (RFU) was measured at 520 nm. The percentage of inhibition was calculated according to the following equation:
% Inhibition=[1−(RFU in test reaction−RFU in blank)/(RFU in control reaction−RFU in blank)]×100.
Each inhibitor was titrated over an appropriate range of concentrations, and inhibition constants were determined using the following equations:
v=Vm[S]/(Km(1+[I]/Ki)+[S])
Certain compounds of the present invention were also tested to determine their ability to inhibit HIV RT-catalyzed DNA polymerization on a heteropolymeric primed-RNA template in the presence of all four natural deoxynucleotide triphosphate (dNTP) substrates. This assay is a modification of a published procedure (Parker et al., “Mechanism of Inhibition of Human Immunodeficiency Virus Type 1 Reverse Transcriptase and Human DNA Polymerases α, β, and γ by the 5′-Triphosphates of Carbovir,3′-Azido-3′-deoxythymidine,2′-3′-Dideoxyguanosine, and 3′-Deoxythymidine”, J. Biol. Chem. 1991, 266 (3), 1754-62).
HIV RT DNA polymerase activity was measured in a reaction buffer containing primed-ribosomal RNA template and dNTPs diluted to appropriate concentrations in assay buffer and pipetted into 1.5 mL microcentrifuge tubes. Nucleotide mimics of the present invention were diluted in buffer and tested at various concentrations up to 5 μM final concentration. The reaction was initiated by addition of enzyme and allowed to proceed at 42° C. for 60 to 90 minutes. The reaction was quenched by addition of 12 μL 0.2 M EDTA, pH 8.0.
50 μL each of reaction was transferred to the well of a 96-well plate (in duplicate). 200 μL of diluted PicoGreen dsDNA Quantitation Reagent was added to each well of a 96-well plate and incubated at room temperature for 5 minutes. Plate wells were read on a microplate fluorometer. The wells were excited at 480 nm and the fluorescence emission intensity (RFU) was measured at 520 nm. The percentage of inhibition and inhibition constants […] were determined for representative compounds as described above.

Where [4] appears, read: incubation concentration 100 μM.
The mark [5] stands for this setting: overnight at 37° C., tested 0-200 μg/ml, NA = Not active.
The mark [6] stands for this setting: value in brackets beside the μg/ml value.

As to `BP(=O)(OC[C@H]1O[C@@H](n2cc(C)c(=O)[nH]c2=O)C[C@H]1N=[N+]=[N-])OP(=O)(O)C(F)(F)P(=O)(O)OCOC(=O)C(C)(C)C` (stereo partly drawn) [Compound 69, 3′-Azido-3′-deoxythymidine 5′-α-P-borano-γ-O-(pivaloyloxymethyl)-β,γ-(difluoromethylene)triphosphate], the “Half-Life, Serum Half-Lives of AZT Triphosphate Mimic Prodrugs” value (“Half-Life, Serum Half-Lives” for short) in the series “in vitro [1]” was more than 48 h. Further, the “Intracellular levels of 27” value in the series with CEM cells (incubation concentration 25 μM) is 33.1 pmol/10^6 cells; in the series with CEM cells (incubation concentration 50 μM), 51.1 pmol/10^6 cells; in the series with CEM cells (setting [4]), 70.8 pmol/10^6 cells. Further, the figures for the “E. coli MIC” value in the series on Escherichia coli (setting [5]) and in the series on Escherichia coli (setting [6]) were 0.75 µg/mL and “(1) uM”, respectively. Moreover, the IC50 (commonly the point on the concentration scale where inhibition reaches its midpoint) with HIV-1RF came to 1130 nM. In the series “in vitro [2]”, the “Half-Life, Cell Extract Half-Lives of AZT 5'-α-P-borano-β,γ-(difluoromethylene) triphosphate Prodrugs” value was 8 h. Besides, the CC50 in the series with CEM-SS cells is 45900 nM.

On to `BP(=O)(OC[C@H]1O[C@@H](n2cc(C)c(=O)[nH]c2=O)C[C@H]1N=[N+]=[N-])OP(=O)(O)C(F)(F)P(=O)(O)Oc1ccccc1` (stereo partly drawn) [Compound 42, 3′-Azido-3′-deoxythymidine 5′-α-P-borano-β,γ-difluoromethylene-γ-O-phenyltriphosphate], for which the “Half-Life, Serum Half-Lives” value in the series “in vitro [1]” was more than 48 h. In series [3], the Ki – broadly, a measure of affinity in units of concentration, obtained from inhibition or displacement – was found to be 113 nM. In the series with HIV-1RF, the IC50 is 2540 nM. For the same molecule, the CC50 in the series with CEM-SS cells came out at 32100 nM.

In the case of “3′-Azido-3′-deoxythymidine 5′-α-P-borano-γ-O-(S-pivaloyl-2-thioethyl)-β,γ-(difluoromethylene)triphosphate [Compound 70]”, the “Half-Life, Serum Half-Lives” value in the series “in vitro [1]” is more than 48 h. Besides, the “Intracellular levels of 27” value in the series with CEM cells (incubation concentration 25 μM) is reported as 10.5 pmol/10^6 cells; in the series on CEM cells (incubation concentration 50 μM), 15.6 pmol/10^6 cells; in the series with CEM cells (setting [4]) it was 19.7 pmol/10^6 cells. Further, the “E. coli MIC” value was 6 µg/mL in the series with Escherichia coli (setting [5]) and “(8.8) uM” with Escherichia coli (setting [6]). Further, the IC50 with HIV-1RF is 950 nM. In addition, the “Half-Life, Cell Extract Half-Lives of AZT 5'-α-P-borano-β,γ-(difluoromethylene) triphosphate Prodrugs” value in the series “in vitro [2]” is 15 h. The CC50 in the series with CEM-SS cells was more than 200000 nM.
